From BigSolDB 2.1 come the findings set out here.

The structures appear in SMILES notation.

The conditions of this data set: in n-octanol.

With `CCn1cc(C(=O)O)c(=O)c2cnc(N3CCNCC3)nc21`, the solubility (mole fraction) (293.15 K) stood at 9.14e-07; the solubility (mole fraction) (298.15 K) was 1.2e-06; the solubility (mole fraction) (303.15 K) was determined as 1.57e-06; the solubility (mole fraction) (308.15 K) stood at 2.03e-06; the solubility (mole fraction) (313.15 K) worked out at 2.6e-06; the solubility (mole fraction) (318.15 K) was found to be 3.25e-06. The solubility (mole fraction) (323.15 K) worked out at 4.05e-06, the solubility (mole fraction) (328.15 K) is 4.97e-06 and the solubility (mole fraction) (333.15 K) came to 6.02e-06.
For the compound `CCn1cc(C(=O)O)c(=O)c2cc(F)c(N3CCNC(C)C3)c(F)c21` (configuration not stated), the solubility (mole fraction) is, setting by setting: (293.15 K) 2.17e-06; (298.15 K) 2.76e-06; (303.15 K) 3.55e-06; (308.15 K) 4.58e-06; (313.15 K) 5.88e-06; (318.15 K) 7.63e-06. The compound further returned a solubility (mole fraction) (323.15 K) of 9.91e-06, a solubility (mole fraction) (328.15 K) of 1.3e-05 and a solubility (mole fraction) (333.15 K) of 1.68e-05.
On to `CCn1cc(C(=O)O)c(=O)c2cc(F)c(N3CCNCC3)cc21`, for which the solubility (mole fraction) is, setting by setting: (293.15 K) 5.17e-05; (298.15 K) 6.62e-05; (303.15 K) 8.54e-05; (308.15 K) 0.000108; (313.15 K) 0.00014; (318.15 K) 0.000177. The solubility (mole fraction) (323.15 K) was determined as 0.000224, the solubility (mole fraction) (328.15 K) was found to be 0.000284 and the solubility (mole fraction) (333.15 K) was found to be 0.000352.
